Test results taken from BindingDB's records for doi:10.1016/j.bioorg.2016.03.011 (Beni-Suef University, 2016).

Biological target: Epidermal growth factor receptor (Homo sapiens, UniProt P00533)
Test: Kinase-Glo Plus Luminescence Kinase Assay
Experimental: Kinase activity was determined using Kinase-Glo Plus luminescence kinase assay kit according to the manufacturer instructions. The assays depend on the quantitation of the amount of ATP remaining in the solution of kinase reaction.

Epidermal growth factor receptor, sequence (P00533 whole entry): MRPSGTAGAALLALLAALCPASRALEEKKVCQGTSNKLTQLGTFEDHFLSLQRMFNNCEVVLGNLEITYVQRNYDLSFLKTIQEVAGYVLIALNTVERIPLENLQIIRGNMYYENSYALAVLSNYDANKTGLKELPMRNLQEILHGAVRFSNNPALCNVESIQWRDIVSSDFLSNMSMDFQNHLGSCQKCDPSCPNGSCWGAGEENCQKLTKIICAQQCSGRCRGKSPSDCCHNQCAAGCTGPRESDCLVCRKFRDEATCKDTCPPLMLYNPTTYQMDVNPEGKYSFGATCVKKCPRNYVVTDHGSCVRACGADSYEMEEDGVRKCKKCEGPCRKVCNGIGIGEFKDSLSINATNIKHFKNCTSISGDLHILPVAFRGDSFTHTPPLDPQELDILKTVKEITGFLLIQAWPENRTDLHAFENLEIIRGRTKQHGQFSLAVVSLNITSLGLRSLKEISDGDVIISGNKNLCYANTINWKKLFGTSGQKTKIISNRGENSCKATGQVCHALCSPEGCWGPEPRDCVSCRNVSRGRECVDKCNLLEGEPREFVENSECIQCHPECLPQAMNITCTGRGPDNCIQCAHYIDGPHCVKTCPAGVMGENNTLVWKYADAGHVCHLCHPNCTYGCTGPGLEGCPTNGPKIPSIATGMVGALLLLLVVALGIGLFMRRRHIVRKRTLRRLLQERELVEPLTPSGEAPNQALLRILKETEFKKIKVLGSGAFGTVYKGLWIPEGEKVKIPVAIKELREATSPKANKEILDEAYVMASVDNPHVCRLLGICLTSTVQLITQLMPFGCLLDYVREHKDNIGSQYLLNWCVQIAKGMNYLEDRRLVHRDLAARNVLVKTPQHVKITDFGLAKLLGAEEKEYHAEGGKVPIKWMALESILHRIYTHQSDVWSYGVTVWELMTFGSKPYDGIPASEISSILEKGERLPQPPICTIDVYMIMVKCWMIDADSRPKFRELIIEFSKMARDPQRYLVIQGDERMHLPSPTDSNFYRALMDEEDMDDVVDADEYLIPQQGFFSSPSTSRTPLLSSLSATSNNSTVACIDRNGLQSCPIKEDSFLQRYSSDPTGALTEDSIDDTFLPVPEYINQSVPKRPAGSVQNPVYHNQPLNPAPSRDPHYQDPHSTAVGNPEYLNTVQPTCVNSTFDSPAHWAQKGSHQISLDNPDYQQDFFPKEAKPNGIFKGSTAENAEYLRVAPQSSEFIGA

Cc1cc(OCC(=O)N/N=C/c2ccc(C(F)(F)F)cc2)c2c(C)nn(-c3ccccc3)c2n1 [N-(4-Trifluoromethylbenzylidene)-2-(3,6-dimethyl-1-phenyl-1H-pyrazolo[3,4-d]pyrimidin-4-yloxy)acetohydrazide (12f)]
IC50: 35.9 µM

Cc1cc(OCC(=O)N/N=C/c2ccc(F)cc2)c2c(C)nn(-c3ccccc3)c2n1 [N-(4-fluorobenzylidene)-2-(3,6-dimethyl-1-phenyl-1H-pyrazolo[3,4-d]pyrimidin-4-yloxy)acetohydrazide (12b)]
IC50: 30 µM
